Laboratory results published in ChEMBL document CHEMBL5465560, “Selectivity Literature for EUbOPEN Chemogenomic Library” (2024).

Experiments:
[1] = biological target: T1, Serine/threonine-protein kinase Chk1 (Homo sapiens) (UniProt O14757); test: Selectivity interaction (KinomeScan (DiscoverX)) EUB0001049a CHEK1; settings: at 1 µM
T1 sequence (whole entry): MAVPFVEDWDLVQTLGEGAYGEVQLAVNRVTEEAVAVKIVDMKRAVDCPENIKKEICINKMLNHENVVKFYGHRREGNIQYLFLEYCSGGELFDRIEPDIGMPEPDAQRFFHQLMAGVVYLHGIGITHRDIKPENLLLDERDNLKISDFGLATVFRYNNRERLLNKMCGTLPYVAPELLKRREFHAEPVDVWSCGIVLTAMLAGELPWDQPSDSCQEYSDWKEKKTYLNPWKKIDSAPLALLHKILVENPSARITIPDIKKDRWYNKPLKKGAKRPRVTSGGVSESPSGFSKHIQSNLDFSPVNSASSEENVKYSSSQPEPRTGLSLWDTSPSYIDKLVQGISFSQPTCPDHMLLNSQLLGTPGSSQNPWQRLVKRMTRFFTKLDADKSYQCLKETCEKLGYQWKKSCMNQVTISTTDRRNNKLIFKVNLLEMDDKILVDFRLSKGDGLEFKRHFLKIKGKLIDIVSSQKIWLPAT

[2] = biological target: Serine/threonine-protein kinase 38-like (Homo sapiens) (UniProt Q9Y2H1); test: Selectivity interaction (KinomeScan (DiscoverX)) EUB0001049a STK38L; settings: at 1 µM
[3] = biological target: Platelet-derived growth factor receptor alpha (Homo sapiens, UniProt P16234); test: Selectivity interaction (Millipore kinase profiler) EUB0000124b PDGFRA; settings: at 10 µM
[4] = biological target: Serine/threonine-protein kinase MRCK beta (Homo sapiens) (UniProt Q9Y5S2); test: Selectivity interaction (KinomeScan (DiscoverX)) EUB0000229b CDC42BPB; settings: at 10 µM
[5] = biological target: Death-associated protein kinase 2 (Homo sapiens) (UniProt Q9UIK4); test: Selectivity interaction (KinomeScan (DiscoverX)) EUB0000229b DAPK2; settings: at 10 µM
[6] = biological target: Cyclin-dependent kinase 5 (Homo sapiens, UniProt Q00535); test: Selectivity interaction (KinomeScan (DiscoverX)) EUB0001079a CDK5; settings: at 1 µM
[7] = biological target: Cyclin-dependent kinase 6 (Homo sapiens) (UniProt Q00534); test: Selectivity interaction (Kinase panel (KiNativ target engagement assay in Jurkat cells)) EUB0001635a CDK6; type: cell-based; settings: Selectivity number of off-targets 0.0, Selectivity number of targets 233.0, Source Knowledge https://www.sciencedirect.com/science/article/pii/S2451945619300674?via%3Dihub, at 1 µM
[8] = biological target: Interferon-induced, double-stranded RNA-activated protein kinase (Homo sapiens) (UniProt P19525); test: Selectivity interaction (Kinase panel (KiNativ target engagement assay in Jurkat cells)) EUB0001635a EIF2AK2; type: cell-based; settings: Selectivity number of off-targets 0.0, Selectivity number of targets 233.0, Source Knowledge https://www.sciencedirect.com/science/article/pii/S2451945619300674?via%3Dihub, at 1 µM
[9] = biological target: Protein kinase C beta type (Homo sapiens, UniProt P05771); test: Selectivity interaction (Kinase panel (Invitrogen)) EUB0000639a PRKCB; settings: at 200 nM
[10] = biological target: Serine/threonine-protein kinase Chk2 (Homo sapiens) (UniProt O96017); test: Selectivity interaction (KinomeScan (DiscoverX)) EUB0000595a CHEK2; settings: at 10 µM
[11] = Selectivity interaction (Ambit KINOMEscan and KiNATiv profiling in Jurkat cells) EUB0000090b CDK2H; settings: Selectivity number of off-targets 9; Selectivity number of targets 456; Source Knowledge https://www.nature.com/articles/nchembio.2166; at 1 µM
[12] = biological target: T2, MAP kinase-activated protein kinase 5 (Homo sapiens) (UniProt Q8IW41); test: Selectivity interaction (KinomeScan (DiscoverX)) EUB0000045b MAPKAPK5
T2 sequence (whole entry): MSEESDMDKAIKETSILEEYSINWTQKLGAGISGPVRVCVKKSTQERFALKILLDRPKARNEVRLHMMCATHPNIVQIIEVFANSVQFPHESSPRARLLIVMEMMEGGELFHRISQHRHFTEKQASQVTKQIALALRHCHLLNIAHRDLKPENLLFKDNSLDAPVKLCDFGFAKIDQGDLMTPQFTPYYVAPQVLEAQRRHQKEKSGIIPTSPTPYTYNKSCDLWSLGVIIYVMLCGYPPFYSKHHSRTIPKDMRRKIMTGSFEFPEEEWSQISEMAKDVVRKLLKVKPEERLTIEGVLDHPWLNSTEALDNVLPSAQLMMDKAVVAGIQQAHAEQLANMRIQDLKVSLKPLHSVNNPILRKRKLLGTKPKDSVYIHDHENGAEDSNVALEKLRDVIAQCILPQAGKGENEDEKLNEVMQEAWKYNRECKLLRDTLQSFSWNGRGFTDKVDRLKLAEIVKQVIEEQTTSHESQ

[13] = biological target: T3, Aurora kinase C (Homo sapiens) (UniProt Q9UQB9); settings: at 10 µM
T3 sequence (whole entry): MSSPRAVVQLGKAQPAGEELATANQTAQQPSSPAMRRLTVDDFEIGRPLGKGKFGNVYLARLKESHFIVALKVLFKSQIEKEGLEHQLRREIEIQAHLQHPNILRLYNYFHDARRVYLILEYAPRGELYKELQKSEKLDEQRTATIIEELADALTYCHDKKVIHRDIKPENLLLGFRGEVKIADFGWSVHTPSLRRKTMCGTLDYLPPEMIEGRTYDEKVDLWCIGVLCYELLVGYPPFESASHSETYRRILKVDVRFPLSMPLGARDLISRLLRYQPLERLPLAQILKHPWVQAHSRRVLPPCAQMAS

[14] = biological target: Mitogen-activated protein kinase kinase kinase 20 (Homo sapiens) (UniProt Q9NYL2); test: Selectivity interaction (KinomeScan (DiscoverX)) EUB0000655a MAP3K20; settings: at 10 µM
[15] = biological target: Histone-lysine N-methyltransferase PRDM9 (Homo sapiens) (UniProt Q9NQV7); test: Selectivity interaction (Methyltransferase screen (radiometric assays, panel of 8 PRMTs, 21 protein lysine methyltransferases, 3 DNA methyltransferases, and one RNA methyltransferase)) EUB0000272b PRDM9
Sequence of Histone-lysine N-methyltransferase PRDM9 (Homo sapiens) (Q9NQV7 whole entry): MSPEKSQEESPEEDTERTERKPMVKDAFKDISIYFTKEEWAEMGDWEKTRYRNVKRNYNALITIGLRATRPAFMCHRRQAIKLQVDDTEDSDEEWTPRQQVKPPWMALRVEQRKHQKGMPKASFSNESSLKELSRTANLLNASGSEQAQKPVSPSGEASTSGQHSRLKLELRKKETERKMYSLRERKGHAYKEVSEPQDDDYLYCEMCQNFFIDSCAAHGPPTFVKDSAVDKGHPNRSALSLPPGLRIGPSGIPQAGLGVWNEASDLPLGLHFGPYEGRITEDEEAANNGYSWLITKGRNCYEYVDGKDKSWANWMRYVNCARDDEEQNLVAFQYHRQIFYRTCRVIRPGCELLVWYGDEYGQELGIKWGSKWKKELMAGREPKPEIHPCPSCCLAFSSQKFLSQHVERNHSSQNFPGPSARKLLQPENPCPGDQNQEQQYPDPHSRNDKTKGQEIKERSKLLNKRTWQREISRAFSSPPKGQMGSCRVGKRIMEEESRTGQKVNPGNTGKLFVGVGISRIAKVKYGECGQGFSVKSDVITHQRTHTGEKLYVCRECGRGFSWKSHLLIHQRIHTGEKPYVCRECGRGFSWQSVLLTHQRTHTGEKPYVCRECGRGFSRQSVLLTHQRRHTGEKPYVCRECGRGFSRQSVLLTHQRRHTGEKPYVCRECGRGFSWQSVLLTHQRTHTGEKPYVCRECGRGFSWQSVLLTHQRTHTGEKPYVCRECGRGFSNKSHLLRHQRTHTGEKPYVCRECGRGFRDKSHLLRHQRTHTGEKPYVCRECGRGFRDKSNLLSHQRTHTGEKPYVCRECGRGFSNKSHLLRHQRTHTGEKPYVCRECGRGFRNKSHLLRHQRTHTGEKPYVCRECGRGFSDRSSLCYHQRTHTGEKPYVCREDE

Sequence of Interferon-induced, double-stranded RNA-activated protein kinase (Homo sapiens) (P19525 whole entry): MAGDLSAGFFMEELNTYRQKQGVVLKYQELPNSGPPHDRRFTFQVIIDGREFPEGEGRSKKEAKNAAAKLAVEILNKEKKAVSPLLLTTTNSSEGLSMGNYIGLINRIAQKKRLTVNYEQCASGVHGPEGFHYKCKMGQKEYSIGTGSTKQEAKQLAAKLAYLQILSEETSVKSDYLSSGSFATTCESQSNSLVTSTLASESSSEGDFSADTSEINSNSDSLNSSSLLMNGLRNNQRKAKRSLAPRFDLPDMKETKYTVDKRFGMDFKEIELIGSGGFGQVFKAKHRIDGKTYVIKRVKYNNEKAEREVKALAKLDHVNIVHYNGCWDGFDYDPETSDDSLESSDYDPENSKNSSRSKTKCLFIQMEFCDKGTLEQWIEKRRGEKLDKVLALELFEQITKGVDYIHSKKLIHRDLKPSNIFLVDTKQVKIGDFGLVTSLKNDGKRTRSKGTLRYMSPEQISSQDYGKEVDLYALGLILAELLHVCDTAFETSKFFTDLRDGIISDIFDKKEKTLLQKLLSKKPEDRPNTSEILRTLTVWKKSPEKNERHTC
Sequence of Serine/threonine-protein kinase Chk2 (Homo sapiens) (O96017 whole entry): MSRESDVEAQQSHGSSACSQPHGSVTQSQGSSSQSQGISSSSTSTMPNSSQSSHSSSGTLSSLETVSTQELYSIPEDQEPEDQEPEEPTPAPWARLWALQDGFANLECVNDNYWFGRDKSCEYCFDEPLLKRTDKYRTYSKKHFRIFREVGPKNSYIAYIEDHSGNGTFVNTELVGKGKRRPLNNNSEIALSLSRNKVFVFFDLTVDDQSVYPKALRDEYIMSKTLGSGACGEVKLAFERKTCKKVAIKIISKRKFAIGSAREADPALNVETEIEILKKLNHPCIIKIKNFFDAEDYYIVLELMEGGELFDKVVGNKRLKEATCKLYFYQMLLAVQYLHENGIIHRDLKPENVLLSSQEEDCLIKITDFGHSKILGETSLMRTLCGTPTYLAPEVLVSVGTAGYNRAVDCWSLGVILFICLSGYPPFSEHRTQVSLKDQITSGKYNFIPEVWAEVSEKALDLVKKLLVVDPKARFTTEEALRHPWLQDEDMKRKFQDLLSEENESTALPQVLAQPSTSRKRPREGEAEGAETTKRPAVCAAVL
Sequence of Protein kinase C beta type (P05771 2-671 limits assumed): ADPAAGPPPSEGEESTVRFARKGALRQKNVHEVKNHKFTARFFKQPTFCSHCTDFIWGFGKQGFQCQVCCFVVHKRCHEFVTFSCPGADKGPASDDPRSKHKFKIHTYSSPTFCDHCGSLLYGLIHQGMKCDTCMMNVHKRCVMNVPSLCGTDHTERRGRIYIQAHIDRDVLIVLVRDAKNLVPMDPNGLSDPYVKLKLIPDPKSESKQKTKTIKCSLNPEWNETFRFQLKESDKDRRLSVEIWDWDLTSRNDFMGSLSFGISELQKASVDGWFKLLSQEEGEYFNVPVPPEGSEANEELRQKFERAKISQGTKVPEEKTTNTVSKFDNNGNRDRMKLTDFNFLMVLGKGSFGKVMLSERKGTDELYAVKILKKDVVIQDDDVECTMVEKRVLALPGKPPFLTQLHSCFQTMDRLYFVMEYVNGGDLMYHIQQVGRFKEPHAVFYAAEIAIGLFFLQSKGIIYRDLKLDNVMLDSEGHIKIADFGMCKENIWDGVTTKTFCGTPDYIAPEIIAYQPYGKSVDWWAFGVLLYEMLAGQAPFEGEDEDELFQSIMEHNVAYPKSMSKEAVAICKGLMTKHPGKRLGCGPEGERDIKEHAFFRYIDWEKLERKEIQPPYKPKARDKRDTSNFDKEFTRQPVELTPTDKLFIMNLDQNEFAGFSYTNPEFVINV
Sequence of Cyclin-dependent kinase 5 (Q00535 whole entry, looked up): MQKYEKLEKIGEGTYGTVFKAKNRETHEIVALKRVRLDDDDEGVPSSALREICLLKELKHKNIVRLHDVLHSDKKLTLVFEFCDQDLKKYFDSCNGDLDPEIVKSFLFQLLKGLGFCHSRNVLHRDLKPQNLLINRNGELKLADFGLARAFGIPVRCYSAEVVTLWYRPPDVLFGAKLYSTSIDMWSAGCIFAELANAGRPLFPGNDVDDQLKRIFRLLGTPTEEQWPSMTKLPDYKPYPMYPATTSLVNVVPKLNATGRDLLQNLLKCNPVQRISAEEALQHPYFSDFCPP
Sequence of Serine/threonine-protein kinase MRCK beta (Homo sapiens) (Q9Y5S2 whole entry): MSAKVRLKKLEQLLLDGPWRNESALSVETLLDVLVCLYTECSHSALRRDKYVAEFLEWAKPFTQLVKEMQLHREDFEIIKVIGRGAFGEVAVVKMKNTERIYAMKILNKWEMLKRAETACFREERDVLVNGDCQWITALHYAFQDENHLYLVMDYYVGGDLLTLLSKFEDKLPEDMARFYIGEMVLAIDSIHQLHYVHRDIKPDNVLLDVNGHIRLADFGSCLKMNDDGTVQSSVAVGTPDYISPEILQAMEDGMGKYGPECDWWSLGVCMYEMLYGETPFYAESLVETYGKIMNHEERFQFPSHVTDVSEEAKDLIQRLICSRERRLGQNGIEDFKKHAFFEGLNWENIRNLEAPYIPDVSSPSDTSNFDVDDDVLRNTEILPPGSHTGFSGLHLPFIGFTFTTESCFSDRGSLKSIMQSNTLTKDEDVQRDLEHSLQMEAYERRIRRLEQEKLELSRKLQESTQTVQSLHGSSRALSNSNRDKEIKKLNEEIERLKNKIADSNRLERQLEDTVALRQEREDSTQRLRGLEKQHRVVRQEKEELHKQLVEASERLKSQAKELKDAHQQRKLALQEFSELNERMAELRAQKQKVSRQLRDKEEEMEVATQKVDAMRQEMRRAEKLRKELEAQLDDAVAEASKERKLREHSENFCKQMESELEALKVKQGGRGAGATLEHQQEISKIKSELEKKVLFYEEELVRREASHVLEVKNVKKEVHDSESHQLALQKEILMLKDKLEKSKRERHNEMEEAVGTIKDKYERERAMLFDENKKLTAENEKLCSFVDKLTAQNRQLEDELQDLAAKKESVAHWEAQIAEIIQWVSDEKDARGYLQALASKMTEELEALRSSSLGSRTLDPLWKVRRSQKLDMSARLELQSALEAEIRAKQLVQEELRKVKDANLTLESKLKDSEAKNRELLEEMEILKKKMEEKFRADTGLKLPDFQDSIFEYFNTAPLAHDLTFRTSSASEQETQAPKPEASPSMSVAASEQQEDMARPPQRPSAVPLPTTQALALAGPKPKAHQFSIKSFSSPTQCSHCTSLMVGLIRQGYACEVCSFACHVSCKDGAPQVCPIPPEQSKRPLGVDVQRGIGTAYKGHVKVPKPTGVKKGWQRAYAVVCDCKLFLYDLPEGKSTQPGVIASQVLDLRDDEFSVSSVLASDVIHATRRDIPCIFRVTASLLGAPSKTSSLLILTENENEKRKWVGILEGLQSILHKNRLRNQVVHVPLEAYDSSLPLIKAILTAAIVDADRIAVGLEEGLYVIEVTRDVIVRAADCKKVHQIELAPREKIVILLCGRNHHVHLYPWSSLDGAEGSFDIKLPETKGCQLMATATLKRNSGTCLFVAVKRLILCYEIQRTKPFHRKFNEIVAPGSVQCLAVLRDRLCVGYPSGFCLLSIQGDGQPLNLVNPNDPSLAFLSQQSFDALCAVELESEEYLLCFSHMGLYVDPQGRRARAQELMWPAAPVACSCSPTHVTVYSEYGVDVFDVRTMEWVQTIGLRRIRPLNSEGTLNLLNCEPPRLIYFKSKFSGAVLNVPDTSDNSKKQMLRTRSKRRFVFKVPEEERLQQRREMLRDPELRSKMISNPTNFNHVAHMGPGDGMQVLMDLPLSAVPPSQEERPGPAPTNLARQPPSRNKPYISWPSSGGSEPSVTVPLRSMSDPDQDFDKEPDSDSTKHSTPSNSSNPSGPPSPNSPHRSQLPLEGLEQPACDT
Sequence of Death-associated protein kinase 2 (Homo sapiens) (Q9UIK4 whole entry, looked up): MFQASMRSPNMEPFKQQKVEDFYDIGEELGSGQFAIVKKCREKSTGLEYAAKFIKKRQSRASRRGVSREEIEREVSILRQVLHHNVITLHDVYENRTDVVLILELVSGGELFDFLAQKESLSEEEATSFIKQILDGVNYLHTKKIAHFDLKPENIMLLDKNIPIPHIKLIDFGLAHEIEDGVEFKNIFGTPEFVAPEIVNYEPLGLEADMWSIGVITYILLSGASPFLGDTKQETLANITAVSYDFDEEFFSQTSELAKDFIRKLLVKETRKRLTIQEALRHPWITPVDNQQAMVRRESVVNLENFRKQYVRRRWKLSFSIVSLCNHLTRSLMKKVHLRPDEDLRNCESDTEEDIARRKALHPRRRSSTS

COc1cc(Nc2nc(C)cc(-c3cnn4nc(OC)ccc34)n2)cc(C(F)(F)F)c1
% of control [1]: 97%
% of control [2]: 100%

CC(=O)Nc1cccc(-n2c(=O)n(C3CC3)c(=O)c3c(Nc4ccc(I)cc4F)n(C)c(=O)c(C)c32)c1
% of control [3]: 111%

COc1cc(N(C)c2ccnc3ccc(C(F)(F)F)cc23)cc(OC)c1OC
% binding [4]: 100%
% binding [5]: 96%

Nc1cnc(N2CCc3cc(S(=O)(=O)Nc4c(F)cc(Cl)cc4F)cc(N4CCCC4=O)c32)nc1 [TP-020n]
% of control [6]: 100%

C=CC(=O)Nc1ccc(C(=O)Nc2[nH]nc3c2CN(C(=O)N[C@H](CN(C)C)c2ccccc2)C3(C)C)cc1
% of engagement [7]: -8.6%
% of engagement [8]: -0.6%

CC[C@@H]1[C@H](F)C(=O)N[C@@H]1COc1nccc2cc(C(N)=O)c(OC)cc12 [ZIMLOVISERTIB]
% of inhibition [9]: 6.06%

COCC(=O)NC/C=C/c1ccc2ncnc(Nc3ccc(Oc4ccc(C)nc4)c(C)c3)c2c1 [CP-724714]
% of control [10]: 55%

CN(C)C/C=C/C(=O)Nc1ccc(C(=O)N2CCCC(Nc3ncc(Cl)c(-c4c[nH]c5ccccc45)n3)C2)cc1 (configuration not stated)
% of control [11]: 100%

C=CC(=O)Nc1cc(-n2c(=O)ccc3cnc4ccc(-c5ccc(NS(C)(=O)=O)cc5)cc4c32)ccc1C
% of control ([12]; at 1 µM): 100%
% of control ([12]; at 10 µM): 100%

Cc1cc([C@@H](C)Nc2ccccc2C(=O)O)c2nc(N3CCOCC3)cc(=O)n2c1 [AZD-6482]
% of control [13]: 93%

CN(C)CCOc1ccc(-c2nc(-c3ccncc3)c(-c3ccc4c(c3)CC/C4=N\O)[nH]2)cc1
% of control [14]: 84%

Cc1cc(C)cc([C@H]2c3cc(C)ccc3NC(=O)CN2C(=O)c2ccc(Br)s2)c1
% of activity ([15]; at 1 µM): 98.7%
% of activity ([15]; at 10 µM): 96.3%
